How the values were obtained:
RAW264.7 [1] = assay: Cytotoxicity against mouse RAW264.7 cells incubated for 5 hrs followed by replacement with fresh media measured after 72 hrs by XTT assay; format: functional, cell-based
RAW264.7 [2] = assay: Antiinflammatory activity in mouse RAW264.7 cells assessed as inhibition of LPS-induced TNFalpha production after 72 hrs […]; format: functional, cell-based; conditions: RAW264.7, 72 h
RAW264.7 [3] = assay: Displacement of [3H]-folic acid from folate receptor on mouse RAW264.7 cells assessed as relative binding after 1 hr by liquid scintillation counting; format: cell-based

With CC[C@H](C)[C@H]1NC(=O)[C@@H](NC(=O)[C@@H](CC(C)C)N(C)C(=O)[C@H]2CCCN2C(=O)C(C)OC(=O)OCCSSC[C@H](NC(=O)[C@H](CC(=O)O)NC(=O)[C@H](CC(=O)O)NC(=O)[C@H](CCCNC(=N)N)NC(=O)[C@H](CC(=O)O)NC(=O)CC[C@H](NC(=O)c2ccc(NCc3cnc4nc(N)[nH]c(=O)c4n3)cc2)C(=O)O)C(=O)O)[C@@H](C)OC(=O)[C@H](Cc2ccc(OC)cc2)N(C)C(=O)[C@@H]2CCCN2C(=O)[C@H](CC(C)C)NC(=O)[C@@H](C)C(=O)[C@H](C(C)C)OC(=O)C[C@@H]1O (some centres undefined) [FOLATE DIDEMNIN B] the Activity (RAW264.7 [1]) was “Dose-dependent effect”, the IC50 (RAW264.7 [1]) was 13 nM and the IC50 (RAW264.7 [2]) was 5 nM. The relative binding affinity (RBA) (RAW264.7 [3]) was 0.18.

Source: ChEMBL document CHEMBL1944525, “Synthesis and activity of folate conjugated didemnin B for potential treatment of inflammatory diseases” (Bioorg Med Chem Lett, 2012)
